Test results taken from patent US5321030A, “Creatine analogs having antiviral activity” (priority 1991, dated 1994).

What was measured:
[1] = test system: HSV-1; experiment: Cytopathic effect (CPE) assay, HSV-1; settings: for effect on percent monolayer cell death, second set of experiments: 0-200 PFU, series of concentrations; for protective effect: no agar overlay, highest concentrations tested
[2] = molecular target: T1, creatine kinase (Oryctolagus cuniculus, UniProt P00563); experiment: Phosphorylation by creatine kinase, coupled assay with pyruvate kinase and LDH; format: biochemical; settings: 40 mM
T1 sequence (P00563 whole entry): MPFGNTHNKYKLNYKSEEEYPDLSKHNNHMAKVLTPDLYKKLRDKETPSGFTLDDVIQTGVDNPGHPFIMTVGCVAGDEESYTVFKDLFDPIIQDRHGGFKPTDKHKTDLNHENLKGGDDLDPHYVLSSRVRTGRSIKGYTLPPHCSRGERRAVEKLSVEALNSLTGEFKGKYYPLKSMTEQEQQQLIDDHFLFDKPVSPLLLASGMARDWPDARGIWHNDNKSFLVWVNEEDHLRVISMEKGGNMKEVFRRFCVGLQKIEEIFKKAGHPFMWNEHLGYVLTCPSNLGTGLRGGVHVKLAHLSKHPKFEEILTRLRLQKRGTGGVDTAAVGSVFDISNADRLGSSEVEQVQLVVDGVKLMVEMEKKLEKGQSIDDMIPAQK
Experimental: Compound 5/6 (AM 361), where R=CH3, was prepared as described above and assayed for phosphorylation by creatine kinase in a coupled assay with pyruvate kinase and lactate dehydrogenase (LDH) as described (Bergmeyer, H. U., ed. (1974), In: Methods of Enzymatic Analysis, Second English Edition, Volume 4, (Verlag Chemie Weinheim and Academic Press, Inc.: New York, London) pp. 1772-1779). Each compound listed in Table 11 below was tested at a concentration of 40 mM. Compound 5/6 (AM 361) was slowly phosphorylated.

[3] = Drug cytotoxicity in CPE assay (monolayer death in absence of virus); settings: monkey, vero cells
[4] = test system: Varicella-Zoster Virus, strain Oka; experiment: microbe, parasite or virus in culture; format: cell-based; settings: Human alphaherpesvirus 3, MRC5, read-out: plaque reduction
[5] = test system: Guinea Pig Cytomegalovirus, Strain 22122; experiment: CPE reduction assay, guinea pig cytomegalovirus in GPE cells; format: cell-based; settings: 12.5 mg/ml
[6] = molecular target: T1, creatine kinase; settings: cited from earlier work
[7] = test system: Pseudorabies virus, Aujeszky strain; format: cell-based; settings: similar assay
[8] = test system: Vesicular stomatitis virus (VSV), Indiana strain; format: cell-based; settings: tested in parallel

## CC(CC(=O)O)C(=N)N (stereo not shown) [carbocreatine, 3-amidinobutyric acid, reference compound]
[1]; Vero cells
  effect on percent monolayer cell death, second set of experiments: no dose-response or consistent protective effect
[1]; Vero cells, 125 PFUs
  protective effect: weak protective effect in some wells

## CCN(CC(=O)O)C(=N)N [EGA, N-ethyl-N-amidinoglycine, reference compound]
[1]; Vero cells
  effect on percent monolayer cell death, second set of experiments: no dose-response or consistent protective effect
[1]; Vero cells, 125 PFUs
  protective effect: weak protective effect in some wells

## 1-carboxymethyl-2-iminomethylimidazolidine [AM 361]
[1]; 22.1 mM, Vero cells
  effect on cytopathic effect: reduced the cytopathic effect as compared with the no drug control in wells inoculated with 25 or 50 PFU/well
[1]; 44.2 mM, Vero cells, each inoculum 12-200 PFU/well (no drug control 30-90%)
  virus-induced monolayer death: 2%
[1]; 18.2-72.7 mM, serum-starved Vero cells, FIG. 17A
  effect on cytopathic effect: inhibited the cytopathic effect
[2]
  % Rate of Creatine: 2.4%
  Δ in Absorbance/min: 0.041

## N=C1NCC(=O)N1CC(=O)O [Compound 7]
[1]; 41.7 mM, Vero cells, 12-200 PFU/well
  antiviral activity: consistent antiviral activity
[3]
  cytotoxicity at 41700 µM: 4%

## C=CCN=C1NCCN1CC(=O)O [Compound 10b]
[1]; 2.58-45.90 mM, Vero cells, 12-200 PFU/well
  antiviral effect: No consistent antiviral effect
[3]
  cytotoxicity at 23000 µM: 7%
  cytotoxicity at 45900 µM: 30%

## N=C(N)NCCC(=O)O [β-guanidinopropionate, β-guanidinopropionic acid, reference compound]
[1]; Vero cells
  effect on percent monolayer cell death, second set of experiments: no dose-response or consistent protective effect
[1]; Vero cells, 125 PFUs
  protective effect: weak protective effect in some wells

## N=C1NCCCN1CC(=O)O [1-carboxymethyl-2-iminohexahydropyrimidine, reference compound]
[1]; Vero cells
  effect on percent monolayer cell death, second set of experiments: no dose-response or consistent protective effect
[1]; Vero cells, 125 PFUs
  protective effect: weak protective effect in some wells

## N=C1NCCN1CCC(=O)O [homocyclocreatine, 1-carboxyethyl-2-iminoimidazolidine, reference compound]
[4]
  inhibition at 1000 µg/mL: 36%
  inhibition at 2000 µg/mL: 39%
  inhibition at 4000 µg/mL: 50%
[5]
  Ave. CPE: 3.7

## CN(CC(=O)O)C(=N)NP(=O)(O)O [P-creatine, N-phosphorocreatine, reference compound]
[6]; reverse reaction, without cyclocreatine, read-out: Km of P-creatine
  Km: 1800 µM

## CN=C1NCCN1CC(=O)O [Compound 10a]
[1]; 19.1 mM, 12, 50, 100 or 200 PFU/well, not 25 PFU/well
  effect on monolayer death: a reduction in monolayer death
[3]
  cytotoxicity at 38200 µM: 5%

## Nc1ncnc2c1ncn2[C@@H]1O[C@H](CO)[C@@H](O)[C@@H]1O [adenine arabinoside]
[7]
  effect against Pseudorabies virus: ineffective

## isoepoxycreatine [reference compound]
[6]; affinity reagent
  inactivation of creatine kinase: completely and irreversibly inactivate creatine kinase

## NC(=O)c1ncn([C@@H]2O[C@H](CO)[C@@H](O)[C@H]2O)n1 [Ribavirin, reference compound]
[8]
  effect on the virus: only a moderate effect

## CN(CC(=O)O)C(=N)N [creatine]
[1]; 70 mM, Vero cells, 125 PFUs
  activity: some activity
[2]
  % Rate of Creatine: 100%
  Δ in Absorbance/min: 1.18

## Nc1nccn1CC(=O)O [1-carboxymethyl-2-aminoimidazole, reference compound]
[1]; Vero cells, 0.31-5.0 mg/ml, FIG. 16
  dose response against cytopathogenicity: shows no such effect
[6]
  binding to creatine kinase: an affinity equal to that of cyclocreatine
  initial rate of phosphorylation by creatine kinase, slower: 5 orders of magnitude
